pIC50: −log10 of the molar value.
molecular target: T1, 5-HT1A (Rattus norvegicus, UniProt P19327); test: Inhibition of 5-methoxy-N,N-dimethyltryptamine (5-MeODMT) induced 5-HT syndrome in rats; assay type: in vivo, Male Wistar rats; parameters: Male Wistar rats (Mol:Wist) weighing 170-240 g are used; from tissue; host or cells: whole living animal, male Wistar rats (Mol:Wist), s.c. dosing; settings: rat, sc
T1 sequence (P19327 1-422): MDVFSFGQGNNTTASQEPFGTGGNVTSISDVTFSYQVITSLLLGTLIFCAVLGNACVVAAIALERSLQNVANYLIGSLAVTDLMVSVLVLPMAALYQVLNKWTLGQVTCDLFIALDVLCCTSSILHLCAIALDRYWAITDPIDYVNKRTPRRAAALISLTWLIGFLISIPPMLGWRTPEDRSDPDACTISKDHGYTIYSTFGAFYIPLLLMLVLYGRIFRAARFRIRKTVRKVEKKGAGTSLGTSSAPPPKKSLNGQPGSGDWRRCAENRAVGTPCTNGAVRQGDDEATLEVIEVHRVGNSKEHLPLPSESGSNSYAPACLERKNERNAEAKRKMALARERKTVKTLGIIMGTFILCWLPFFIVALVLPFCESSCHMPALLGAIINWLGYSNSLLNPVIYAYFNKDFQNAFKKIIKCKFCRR
Excerpt: INHIBITION OF 5-METHOXY-N,N-[…] INDUCED 5-HT SYNDROME IN RATS
The so-called 5-HT syndrome is a characteristic behaviour pattern which is induced by 5-HT agonists with effects on 5-HT, possibly 5-HT1A receptors, although lack of specific antagonists make it difficult to evaluate specificity (Smith, L. M. and S. J. Peroutka, Pharmacol. Biochem. & Behaviour 24, 1513-1519, 1986; Tricklebank, M. et al., Eur. J. Pharmacol. 117, 15-24, 1985).
Male Wistar rats (Mol:Wist) weighing 170-240 g are used. Test substrate is injected subcutaneously 30 min. before 5-methoxy-N,N-dimethyltryptamine 5 mg/kg, s.c. Four rats are used for each dose. A control group pretreated with saline is included each test day. Ten, 15 and 20 min later the rats are observed for presence of serotonin (5-HT) syndrome: (1) forepaw treading ("piano playing"), (2) head weaving and (3) hindleg abduction. Further, flat motility is scored. Each part of the syndrome is scored as follows: marked effect (score 2), weak syndrome (score 1) and no effect (score 0). The scores of the three observation times are added. Thus the maximum obtainable score for four rats is 24. The effect of the test substance is expressed as per cent inhibition relative to the control group.
The per cent inhibition of the piano playing syndrome is used as the response, and ED50 values are calculated by log-prohibit analysis.

SMILES | ED50 [µmol/kg]
CC1(C)CC(=O)N(CCCCN2CCN(c3ncccn3)CC2)C(=O)C1 [gepirone, reference compound] | 32
O=C1c2ccccc2S(=O)(=O)N1CCCCN1CCN(c2ncccn2)CC1 [ipsapirone, reference compound] | 26

molecular target: T1, 5-HT1A; test: Generalization to discriminative stimulus properties induced by 8-OHDPAT in rats (agonism); assay type: in vivo, Male Wistar rats; parameters: from tissue; host or cells: whole living animal, male Wistar rats, s.c. dosing; settings: rat, sc, read-out: ED50, 8-OH DPAT cue agonism
Excerpt: GENERALIZATION TO DISCRIMINATIVE STIMULUS PROPERTIES INDUCED BY 8-OHDPAT IN RATS.
This test model is used to determine the agonist effects of a test compound on 5-HT1A receptors in vivo. A related method is described by Tricklebank, M. D., J. Neill, E. J. Kidd and J. R. Fozard, Eur. J. Pharmacol. 133, 37-56, 1987; Arnt, J., Pharmacology & Toxicology 64, 165-172, 1989.
The procedure is the same as for the antagonism test mentioned above, except that the test compound is substituted for 8-OHDPAT and injected s.c. usually 30 minutes or 45 minutes respectively before beginning of the test.
The per cent drug response obtained for each dose of test compound is used to calculate ED50 values by log-probit analysis.

SMILES | ED50 [µmol/kg]
CC1(C)CC(=O)N(CCCCN2CCN(c3ncccn3)CC2)C(=O)C1 [gepirone, reference compound] | 0.81

same assay, conditions: rat, sc, usually 30 or 45 min before test; substituted for 8-OHDPAT; per cent drug response; read-out: ED50, 8-OH DPAT cue agonism

SMILES | ED50 [µmol/kg]
O=C1c2ccccc2S(=O)(=O)N1CCCCN1CCN(c2ncccn2)CC1 [ipsapirone, reference compound] | 1.8

molecular target: T2, serotonin 5-HT1A receptors (Rattus norvegicus, UniProt P19327); test: Inhibition of 3H-8-OHDPAT binding to serotonin 5-HT1A receptors in rat brain in vitro; settings: 3H-8-OHDPAT 1 nM, rat brain membranes minus cerebellum, 37° C., 15 min; read-out: IC50 (3H 8-OH DPAT binding)
T2 construct: membranes from rat brain minus cerebellum; from tissue; host or cells: brain minus cerebellum of male Wistar (Mol:Wist) rats, membranes
T2 sequence (P19327 1-422): T1 sequence (P19327 1-422)
Experimental: INHIBITION OF ^3 H-8-OHDPAT BINDING TO SEROTONIN 5-HT1A RECEPTORS IN A RAT BRAIN IN VITRO
By this method the inhibition by drugs of the binding of ^3 H-8-OHDPAT (1 nM) to serotonin 5-HT1A receptors in membranes from rat brain minus cerebellum is determined in vitro.
Male Wistar (Mol:Wist) rats (125-250 g) are sacrificed and the brain is dissected and weighed. The brain tissue minus cerebellum is homogenized (Ultra Turrax, 20 sec) in 10 ml of ice cold 50 mM Tris buffer pH 8.0 (at 25° C.) containing 120 mM NaCl, 4 mM CaCl2 and 4 mM MgCl2. The homogenate is centrifuged at 20,000 g for 10 min at 4° C. The pellet is homogenized in 10 ml of buffer and incubated at 37° C. for 10 min. The homogenate is centrifuged as above and the pellet is homogenized in 100 vol (w/v) ice cold buffer containing 10 μ M of parglyine.
Incubation tubes kept on ice in triplicate receive 100 μl of drug solution in water (or water for total binding) and 1000 μ l of tissue suspension (final tissue content corresponds to 10 mg original tissue). The binding experiment is initiated by addition of 100 μ l of ^3 H-8-OHDPAT (final concentration 1 nM) and by placing the tubes in a 37° C. water bath. After incubation for 15 min the samples are filtered under vacuum (0-50 mBar) through Whatman GF/F filters ([…]). The tubes are rinsed with 5 ml ice cold 0.9% NaCl which are then poured on the filters. Thereafter, the filters are washed with 2×5 ml 0.9% NaCl. The filters are placed in counting vials and 4 ml of appropriate scintillation fluid (e.g. Picofluor™15) are added. After shaking for 1 h and storage 2 h in the dark the content of radioactivity is determined by liquid scintillation counting. Specific binding is obtained by subtracting the nonspecific binding in the presence of 10 μ M of 5-HT.
For determination of the inhibition of binding five concentrations of drugs covering 3 decades are used.
The IC50 -value is determined as the concentration, at which the binding is 50% of the total binding in control samples minus the nonspecific binding in the presence of 10 μM of 5-HT.
^3 H-8-OHDPAT from Amersham International plc. England. Specific activity approximately 200 Ci/mmol).

pIC50 | SMILES
8.46 | c1ccc2c(c1)NCC2CCCCN1CCN(c2cccc3c2OCCO3)CC1 (single isomer, unassigned; (+)) [Compound 7c, (+)-3-[4-[4-(1,4-benzodioxan-5-yl)-1-piperazinyl]-1-butyl]-1H-2,3-dihydroindole]
7.77 | COc1ccccc1N1CCN(CCCCC2CNc3ccc(F)cc32)CC1 (stereo not shown) [Compound 3g, 5-fluoro-3-[4-[4-(2-methoxyphenyl)-1-piperazinyl]-1-butyl]-1H-2,3-dihydroindole]
7.77 | CC(C)Oc1ccccc1N1CCN(CCCCC2CNc3ccccc32)CC1 (stereo not shown) [Compound 3d, 3-[4-[4-(2-isopropyloxyphenyl)-1-piperazinyl]-1-butyl]-1H-2,3-dihydroindole]
7.85 | c1cc2c(c(N3CCN(CCCCc4c[nH]c5ccccc45)CC3)c1)OCC2 [Compound 2b, 3-[4-[4-(2,3-dihydro-7-benzofuranyl)-1-piperazinyl]-1-butyl]-1H-indole]
7.29 | COc1ccccc1N1CCN(CCCCC2C(=O)Nc3ccccc32)CC1 (stereo not shown) [Compound 8a, 3-[4-[4-(2-methoxyphenyl)-1-piperazinyl]-1-butyl]-1H-2,3-dihydroindol-2-on]
8.36 | Fc1ccc2c(c1)C(CCCCN1CCN(c3cccc4c3OCCO4)CC1)CN2 (stereo not shown) [Compound 3l, 3-[4-[4-(1,4-benzodioxan-5-yl)-1-piperazinyl]-1-butyl]-5-fluoro-1H-2,3-dihydroindole]
7.82 | Fc1ccc2[nH]cc(CCCCN3CCN(c4cccc5c4OCC5)CC3)c2c1 [Compound 2e]
7.46 | COc1ccccc1N1CCN(CCCCC2CN(C(C)=O)c3ccccc32)CC1 (stereo not shown) [Compound 5a, 1-Acetyl-3-[4-[4-(2-methoxyphenyl)-1-piperazinyl]-1-butyl]-1H-2,3-dihydroindole]
8.43 | Fc1ccc2[nH]cc(CCCCN3CCN(c4cccc5c4OCCO5)CC3)c2c1 [Compound 2d, 3-[4-[4-(1,4-benzodioxan-5-yl)-1-piperazinyl]-1-butyl]-5-fluoro-1H-indole]
8.12 | Clc1ccc2c(c1)C(CCCCN1CCN(c3cccc4c3OCCO4)CC1)CN2 (stereo not shown) [Compound 3k, 3-[4-[4-(1,4-benzodioxan-5-yl)-1-piperazinyl]-1-butyl]-5-chloro-1H-2,3-dihydroindole]
8.07 | COc1ccccc1N1CCN(CCCCc2n[nH]c3ccc(C(F)(F)F)cc23)CC1 [Compound 9a, 3-[4-[4-(2-methoxyphenyl)-1-piperazinyl]-1-butyl]-5-trifluoromethyl-1H-indazole]
8.00 | COc1ccccc1N1CCN(CCCCc2c[nH]c3cc(Cl)ccc23)CC1 [Compound 1b, 6-Chloro-3-[4-[4-(2-methoxyphenyl)-1-piperazinyl]-1-butyl]-1H-indole]
8.24 | COc1ccccc1N1CCN(CCCCC2CNc3cc(Cl)ccc32)CC1 (stereo not shown) [Compound 3f, 6-chloro-3-[4-[4-(2-methoxyphenyl)-1-piperazinyl]-1-butyl]-1H-2,3-dihydroindole]
8.04 | COc1ccccc1N1CCN(CCCCC2CNc3ccc(Cl)cc32)CC1 (stereo not shown) [Compound 3e, 5-chloro-3-[4-[4-(2-methoxyphenyl)-1-piperazinyl]-1-butyl]-1H-2,3-dihydroindole]
8.24 | Fc1ccc2c(c1)C(CCCCN1CCN(c3cccc4c3OCC4)CC1)CN2 (stereo not shown) [Compound 3m, 3-[4-[4-(2,3-dihydro-7-benzofuranyl)-1-piperazinyl]-1-butyl]-5-fluoro-1H-2,3-dihydroindole]
8.51 | c1ccc2c(c1)NCC2CCCCN1CCN(c2cccc3c2OCCO3)CC1 (single isomer, unassigned; (-)) [Compound 7d, (-)-b 3-[4-[4-(1,4-benzodioxan-5-yl)-1-piperazinyl]-1-butyl]-1H-2,3-dihydroindole]
7.77 | Oc1ccccc1N1CCN(CCCCC2CNc3ccccc32)CC1 (stereo not shown) [Compound 4a, 3-[4-[4-(2-hydroxyphenyl)-1-piperazinyl]-1-butyl]-1H-2,3-dihydroindole]
7.85 | CSc1ccccc1N1CCN(CCCCC2CNc3ccccc32)CC1 (stereo not shown) [Compound 3b, 3-[4-[4-(2-methylthiophenyl)-1-piperazinyl]-1-butyl]-1H-2,3-dihydroindole]
7.96 | COc1ccccc1N1CCN(CCCCc2c[nH]c3ccc(F)cc23)CC1 [Compound 1a, 5-Fluoro-3-[4-[4-(2-methoxyphenyl)-1-piperazinyl]-1-butyl]-1 H-indole]
7.37 | COc1ccccc1N1CCN(CCCCC2CN(C)c3ccccc32)CC1 (stereo not shown) [Compound 6a, 3-[4-[4-(2-methoxyphenyl)-1-piperazinyl]-1-butyl]-1-methyl-1H-2,3-dihydroindole]
8.24 | c1cc2c(c(N3CCN(CCCCc4c[nH]c5ccccc45)CC3)c1)OCCO2 [Compound 2c, 3-[4-[4-(1,4-benzodioxan-5-yl)-1-piperazinyl]-1-butyl]-1H-indole]
7.05 | COc1cccc(N2CCN(CCCCC3CNc4ccccc43)CC2)c1OC (stereo not shown) [Compound 3h, 3-[4-[4-(2,3-dimethoxyphenyl)-1-piperazinyl]-1-butyl]-1H-2,3-dihydroindole]

SMILES | pIC50
COc1ccccc1N1CCN(CCCCc2c[nH]c3ccccc23)CC1 [Compound 2a, 3-[4[4-(2-methoxyphenyl)-1-piperazinyl]-1-butyl]-1H-indole] | 7.77
O=C1c2ccccc2S(=O)(=O)N1CCCCN1CCN(c2ncccn2)CC1 [ipsapirone, reference compound] | 7.77
